Patent publication US11566017B2, “Dihydroquinazolinone compound or pharmacologically acceptable salt, and cell growth inhibitor” (RIKEN, priority 2017, dated 2023)

Key:
[1] = tested on: tubulin (microtubule polymerization); experiment: Microtubule polymerization inhibition test (fluorescence kit BK011P); type: biochemical; conditions: 60 min
Method: Using a microtubule polymerization reaction measurement kit (Cytoskeleton Inc.; BK011P), the microtubule polymerization inhibitory activity of the compound (test compound) prepared in each of Examples was evaluated on the basis of the standard protocol of the kit. Solutions with concentrations of 30 μM and 150 μM were prepared by dissolving the test compound in DMSO, and used as test compound solutions (with final concentrations of 3 μM and 15 μM, respectively). DMSO was used as a negative control solution, and vincristine (final concentration: 3 μM) was used as a positive control solution.
5 μL of the test compound solution or each control solution, and 50 μL of a microtubule-containing reaction mixture (1×Buffer 1; 1 mM GTP; 15% glycerol; and tubulin with a concentration of 2 mg/mL) were added to a 96-well plate (Corning Costar Company; #3686) warmed to 37° C., and a change in fluorescence of the reaction solution was measured over 1 hour. A higher fluorescence intensity means a higher degree of progression of polymerization of microtubules. The composition of Buffer 1 and the fluorescence measurement conditions employed in the analysis are shown below.
80 mM Piperazine-N,N′-bis[2-ethanesulfonic acid] sequisodium salt; 2.0 mM Magnesium chloride; 0.5 mM Ethylene glycol-bis (β-amino-ethyl ether)N,N,N′,N′-tetra-acetic acid; 10 μM fluorescent reporter
Measurement wavelength: 360 nm (excitation wavelength) and 450 nm (emission wavelength)
Measurement time: 60 min (1 cycle/min)
Equipment used: Microplatereader SpectraMax M2 (Molecular Devices Company)

[2] = tested on: human colorectal cancer cell line COLO-320DM; experiment: Cell proliferation inhibitory activity test (Celltiter-Glo); type: cell-based; conditions: COLO-320DM cells, 96 hours
[3] = biological target: T1, tankyrase 2 (TNKS2) (Homo sapiens, UniProt Q9H2K2); experiment: Tankyrase inhibitory activity test (ELISA, auto-poly(ADP-ribosyl)ation), tankyrase 2; type: biochemical; conditions: Flag tagged tankyrase 2 (613-1,116aa, ANK5+SAM+PARP); read-out: TNKS2 (inhibitory activity against tankyrase 2, IC50)
T1 construct: tankyrase 2 (613-1,116aa, ANK5+SAM+PARP); made in house; host or cells: cell-free protein expression system
Method in brief: (§1)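 Cell-free-expressed Flag-tagged TNKS1 (1,024-1,327aa, SAM+PARP) or TNKS2 (613-1,116aa, ANK5+SAM+PARP) was captured on anti-FLAG plates and pre-incubated 10 min at RT with compound (pH 8.0, MgCl2, DTT). Auto-PARylation was started with NAD solution (225 μM NAD, 25 μM biotin-NAD), 45 min at 30 °C. Detection by HRP-streptavidin chemiluminescence; IC50 from residual activity.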

[4] = biological target: T2, tankyrase 1 (TNKS1) (Homo sapiens, UniProt O95271); experiment: Tankyrase inhibitory activity test (ELISA, auto-poly(ADP-ribosyl)ation), tankyrase 1; type: biochemical; conditions: Flag tagged tankyrase 1 (1,024-1,327aa, SAM+PARP); read-out: TNKS1 (inhibitory activity against tankyrase 1, IC50)
T2 construct: tankyrase 1 (1,024-1,327aa, SAM+PARP); made in house; host or cells: cell-free protein expression system
Method in brief: as §1

[5] = racemates, 3 μM (FIG. 1A) and 15 μM (FIG. 1B)

T2 sequence (O95271 1024-1327): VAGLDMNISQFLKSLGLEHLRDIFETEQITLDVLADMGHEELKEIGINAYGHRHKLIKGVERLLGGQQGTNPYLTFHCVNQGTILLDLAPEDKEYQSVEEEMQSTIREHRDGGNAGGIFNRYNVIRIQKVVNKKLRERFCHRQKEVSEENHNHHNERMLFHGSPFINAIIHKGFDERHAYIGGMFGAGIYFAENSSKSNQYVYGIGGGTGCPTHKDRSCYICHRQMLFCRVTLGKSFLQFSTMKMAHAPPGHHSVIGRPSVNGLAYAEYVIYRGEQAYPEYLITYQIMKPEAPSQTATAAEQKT

GI50 [2] [µM]	IC50 [3] [nM]	IC50 [4] [nM]	Structure (SMILES)	microtubule polymerization: increase in fluorescence intensity ([1]; positive control, final concentration 3 μM)	microtubule polymerization: increase in fluorescence intensity [1, 5]
< 1	< 5	5 to 20	COc1ccc(-c2n[nH]nc2C2NC(=O)c3cccc(C)c3N2)cc1 (racemic) [Example 65, 2-[5-(4-Methoxyphenyl)-2H-1,2,3-triazol-4-yl]-8-methyl-2,3-dihydro-1H-quinazolin-4-one]		slower increase in fluorescence intensity as compared to the DMSO control
< 1	< 5	5 to 20	CCOc1ccc(-c2n[nH]nc2C2NC(=O)c3cccc(C)c3N2)cc1 (racemic) [Example 70, 2-[5-(4-Ethoxyphenyl)-2H-1,2,3-triazol-4-yl]-8-methyl-2,3-dihydro-1H-quinazolin-4-one]		slower increase in fluorescence intensity as compared to the DMSO control
1 to 10	< 5	5 to 20	CCOc1ccc(-c2n[nH]cc2C2NC(=O)c3cccc(C)c3N2)cc1 (stereo not shown) [Example 55, 2-[5-(4-Ethoxyphenyl)-1H-pyrazol-4-yl]-8-methyl-2,3-dihydro-1H-quinazolin-4-one]		
1 to 10	< 5	5 to 20	CCc1cccc2c1NC(c1n[nH]nc1-c1ccc(OC)cc1)NC2=O (stereo not shown) [Example 81, 8-Ethyl-2-[4-(4-methoxyphenyl)-2H-1,2,3-triazol-5-yl]-2,3-dihydro-1H-quinazolin-4-one]		
1 to 10	5 to 20	5 to 20	COc1ccc(-c2n[nH]cc2C2NC(=O)c3ccccc3N2C)cc1 (stereo not shown) [Example 83, 2-[5-(4-Methoxyphenyl)-1H-pyrazol-4-yl]-1-methyl-2,3-dihydroquinazolin-4-one]		
≥ 10	5 to 20	5 to 20	O=C1NC(c2n[nH]nc2-c2ccc(OCC(F)F)cc2)N2CCc3cccc1c32 (stereo not shown) [Example 84, 11-[5-[4-(2,2-Difluoroethoxy)phenyl]-2H-1,2,3-triazol-4-yl]-1,10-diazatricyclo[6.3.1.0^4,12]dodeca-4(12),5,7-trien-9-one]		
1 to 10	5 to 20	5 to 20	COc1ccc(-c2n[nH]nc2C2NC(=O)c3cccc4c3N2CC4)cc1 (racemic) [Example 69, 11-[5-(4-Methoxyphenyl)-2H-1,2,3-triazol-4-yl]-1,10-diazatricyclo[6.3.1.0^4,12]dodeca-4(12),5,7-trien-9-one]		slower increase in fluorescence intensity as compared to the DMSO control

Continued, compound first:

Structure (SMILES)	GI50 [2] [µM]	IC50 [3] [nM]	IC50 [4] [nM]	microtubule polymerization: increase in fluorescence intensity ([1]; positive control, final concentration 3 μM)	microtubule polymerization: increase in fluorescence intensity [1, 5]
CC[C@]1(O)C[C@H]2CN(CCc3c([nH]c4ccccc34)[C@@](C(=O)OC)(c3cc4c(cc3OC)N(C=O)[C@H]3[C@@](O)(C(=O)OC)[C@H](OC(C)=O)[C@]5(CC)C=CCN6CC[C@]43[C@@H]65)C2)C1 [vincristine, reference compound]				slower increase in fluorescence intensity as compared to the DMSO control	
Cc1cccc2c1NC(c1c[nH]nc1-c1ccc(OCC(F)(F)F)cc1)NC2=O (stereo not shown) [Example 54, 8-Methyl-2-[3-(4-(2,2,2-trifluoroethoxy)phenyl)-1H-pyrazol-4-yl]-2,3-dihydro-1H-quinazolin-4-one]	1 to 10	< 5	5 to 20		
CN1c2ccccc2C(=O)NC1c1c[nH]nc1-c1ccc(OCc2ccccc2)cc1 (stereo not shown) [Example 11, 1-Methyl-2-[3-(4-phenylmethoxyphenyl)-1H-pyrazol-4-yl]-2,3-dihydroquinazolin-4-one]	≥ 10	< 5	5 to 20		
CN1c2ccccc2C(=O)NC1c1c[nH]nc1-c1ccccc1 (stereo not shown) [Example 10, 1-Methyl-2-(3-phenyl-1H-pyrazol-4-yl)-2,3-dihydroquinazolin-4-one]	≥ 10	< 5	5 to 20		
CN1c2ccccc2C(=O)NC1c1c[nH]nc1-c1ccc(OCC(F)(F)F)cc1 (stereo not shown) [Example 27, 1-Methyl-2-[3-(4-(2,2,2-trifluoromethoxy)phenyl]-1H-pyrazol-4-yl]-2,3-dihydroquinazolin-4-one]	≥ 10	5 to 20	< 5		
CN1c2ccccc2C(=O)NC1c1c[nH]nc1-c1ccc(OCc2ccccc2)c(F)c1 (stereo not shown) [Example 45, 2-[3-(3-Fluoro-4-phenylmethoxyphenyl)-1H-pyrazol-4-yl]-1-methyl-2,3-dihydroquinazolin-4-one]	1 to 10	< 5	< 5		
CN1c2ccccc2C(=O)NC1c1c[nH]nc1-c1ccc(I)cc1 (stereo not shown) [Example 19, 2-[3-(4-Iodophenyl)-1H-pyrazol-4-yl]-1-methyl-2,3-dihydroquinazolin-4-one]	≥ 10	< 5	5 to 20		
CN1c2ccccc2C(=O)NC1c1c[nH]nc1-c1ccc(-c2ccnc3[nH]ccc23)cc1 (stereo not shown) [Example 39, 1-Methyl-2-[3-[4-(1H-pyrrolo[2,3-b]pyridin-4-yl)phenyl]-1H-pyrazol-4-yl]-2,3-dihydroquinazolin-4-one]	≥ 10	20 to 50	20 to 50		
CN1c2ccccc2C(=O)NC1c1c[nH]nc1-c1ccc(-c2cccc(O)c2)cc1 (stereo not shown) [Example 24, 2-[3-[4-(3-Hydroxyphenyl)phenyl]-1H-pyrazol-4-yl]-1-methyl-2,3-dihydroquinazolin-4-one]	≥ 10	5 to 20	5 to 20		
COc1ccc(-c2n[nH]cc2C2NC(=O)c3ccc(C)cc3N2C)cc1 (stereo not shown) [Example 53, 2-[5-(4-Methoxyphenyl)-1H-pyrazol-4-yl]-1,7-dimethyl-2,3-dihydroquinazolin-4-one]	≥ 10	5 to 20	5 to 20		
CN1c2ccccc2C(=O)NC1c1c[nH]nc1-c1cc(F)cc(F)c1 (stereo not shown) [Example 47, 2-[3-(3,5-Difluorophenyl)-1H-pyrazol-4-yl]-1-methyl-2,3-dihydroquinazolin-4-one]	≥ 10	5 to 20	20 to 50		
CN1c2ccccc2C(=O)NC1c1c[nH]nc1-c1cccc(Cl)c1 (stereo not shown) [Example 42, 2-[3-(3-Chlorophenyl)-1H-pyrazol-4-yl]-1-methyl-2,3-dihydroquinazolin-4-one]	1 to 10	5 to 20	20 to 50		
CCOc1ccc(-c2n[nH]nc2[C@H]2NC(=O)c3cccc(C)c3N2)cc1 [Example 8, (2R)-2-[5-(4-Ethoxyphenyl)-2H-1,2,3-triazol-4-yl]-8-methyl-2,3-dihydro-1H-quinazolin-4-one]	< 1	< 5	< 5		
COc1ccc(-c2n[nH]cc2C2NC(=O)c3ccccc3N2CC2CC2)cc1 (stereo not shown) [Example 14, 1-(Cyclopropylmethyl)-2-[5-(4-methoxyphenyl)-1H-pyrazol-4-yl]-2,3-dihydroquinazolin-4-one]	≥ 10	20 to 50	20 to 50		
CCN1c2ccccc2C(=O)NC1c1c[nH]nc1-c1ccc(C(=O)OC)cc1 (stereo not shown) [Example 13, Methyl 4-[4-(1-ethyl-4-oxo-2,3-dihydroquinazolin-2-yl)-1H-pyrazol-3-yl]benzoate]	≥ 10	20 to 50	20 to 50		
CN1c2ccccc2C(=O)NC1c1c[nH]nc1-c1ccc(-c2ccc(N3CCNCC3)cc2)cc1 (stereo not shown) [Example 41]	1 to 10	5 to 20	20 to 50		
